Measured values taken from patent US20260199510A1, “AN ANTIBODY-DRUG CONJUGATE HAVING TWO OR MORE FUNCTIONAL SMALL MOLECULE COMPOUNDS FOR ENHANCED TREATMENT OF REFRACTORY DISEASES” (priority 2023, published 2026).

Assays:
Format in all cases: cell-based
[1] = system: PC3-4H7 cells; test: MTT assay of B7H3-ADCs against PC3-4H7 tumor cells; conditions: 6000 cells, 96 h incubation
Source text: Parent cell line PC-3 from Nanjing Cobioer Biosciences Co., was introduced with plasmid coexpress both human PSMA and RFP-Neomycin fusion protein and plasmid coexpress human Steap1 and GFP-Blasticidin fusion protein. The high expression cells were selected by neomycin and Blasticidin, and the selected clone 4H7 having high expression of both PSMA and Steapl was verified by FACs and chosen for further use in vitro and in vivo study.
The cell lines used in the cytotoxicity assays were: C4-2B Cells which was obtained from ATCC through license agreement with MD Anderson Cancer Center, Houston, TX, USA. 22RV1, U87, NCI-N87, MKN-7, JIMT-1, SU86.86, SW1990, OVCAR-3, Calu-3, A431, AsPC-1, HCC827 and H1975 cells were purchased from ATCC, Nanjing Cobioer and The Cell Bank of Shanghai Institute of Biochemistry and Cell Biology, and the others. C4-2B and PC-3-4H7 are both Steap1 and PSMA antigen high express cells, but medium expressed of both B7H3 and DLL3 antigens. 22RV1 is low express cells for Steapl, PSMA, B7H3 and DLL3 antigens. U87 is glioblastoma (GBM) cells, NCI-N87 and MKN-7 cell line are stable models of the gastric epithelium. […] After it was shaken for 15 min, the absorbance was measured at 490 nm and 570 nm with a reference filter of 620 nm. The inhibition % was calculated according to the following equation: inhibition % =[1-(assay-blank)/(control-blank)]x 100.

[2] = system: NCI-N87 cells; test: MTT assay of BsHer2-ADCs against NCI-N87 cells; conditions: Homo sapiens, BsHer2 (trastuzumab/pertuzumab)-ADCs, 5000 cells, 96 h incubation
[3] = system: 22RV1 cells; test: MTT assay of B7H3-ADCs against 22RV1 tumor cells; conditions: Homo sapiens, 6000 cells, 96 h incubation
[4] = system: SU86.86 cells; test: MTT assay of BsHer2-ADCs against SU86.86 cells; conditions: Homo sapiens, SU.86.86, BsHer2 (trastuzumab/pertuzumab)-ADCs, 5000 cells, 96 h incubation
[5] = system: SW1990 cells; test: MTT assay of BsHer2-ADCs against SW1990 cells; conditions: Homo sapiens, BsHer2 (trastuzumab/pertuzumab)-ADCs, 5000 cells, 96 h incubation
[6] = system: MKN-7 cells; test: MTT assay of BsHer2-ADCs against MKN-7 cells; conditions: Homo sapiens, BsHer2 (trastuzumab/pertuzumab)-ADCs, 5000 cells, 96 h incubation
[7] = system: C4-2B cells; test: MTT assay of B7H3-ADCs against C4-2B tumor cells; conditions: 6000 cells, 96 h incubation

IC50 [1]: 2.03 nM
IC50 [3]: 1.85 nM
IC50 [5]: 0.042 nM
IC50 [6]: 10.2 nM
IC50 [7]: 1.59 nM
Structure (SMILES): CC(=O)O[C@H]1C(=O)[C@@]2(C)[C@H]([C@H](OC(=O)c3ccccc3)[C@]3(O)C[C@H](OC(=O)[C@H](O)[C@@H](NC(=O)c4ccccc4)c4ccccc4)C(C)=C1C3(C)C)[C@]1(OC(C)=O)CO[C@@H]1C[C@@H]2O [Paclitaxel]
IC50 [2]: 0.76 nM
IC50 [4]: 2.98 nM
